Experimental data reported in US20100234377A1 (priority 2007, published 2010).
Where two headings read alike, the source gives them in different places.

What was measured:
[1] = biological target: T1, human Prostaglandin D Synthase (GST2) (Homo sapiens, UniProt O60760); assay: Homogeneous biochemical assay of human Prostaglandin D Synthase (GST2) based on its glutathion-S-transferase activity (GSH conjugation to monochlorobimane, fluorescence)
T1 construct: the open reading frame of human Prostaglandin D Synthase was amplified from cDNA; made in house; host or cells: E. coli TOP10F'
How it was run: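 N-His-tagged human PGD synthase from E. coli, assayed via its GST activity: GSH conjugation to monochlorobimane in 50 mM MES/KOH pH 6.1, 0.7 mM GSH, 2 mM MgCl2. Compounds at final picomolar to triple-digit micromolar concentrations.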

[2] = biological target: K+ATP channel (Rattus norvegicus, UniProt Q09429); assay: KATP channel receptor binding assay ([3H]glibenclamide); settings: [3H]glibenclamide 0.1 nM, rat cerebral cortex; for inhibition at 10 µM: Table 1, 10 μM compound concentration, read-out: K^+ATP Channel (% Inhibition of Control Specific Binding); for K+ATP Channel (% Inhibition of Control Specific Binding): Table 3
Description: KATP Channel Mediated Binding Assay
The compounds of Comparative Examples I to XII and Compounds 59, 30, 22, 76 and 69 were tested for their effects in an in vitro receptor binding KATP channel assay.
(§1) The specific ligand binding to the receptor is defined as the difference between the total binding and the non-specific binding determined in the presence of an excess of unlabelled ligand. The results are expressed as a percent inhibition of control specific binding obtained in the presence of the test compounds.
(§2) In each experiment, the respective reference compound was tested concurrently with the test compounds in order to assess the assay suitability. It was tested at several concentrations (for IC50 value determination), and the data were compared with historical values.

[3] = biological target: T2, PPARγ (h) (Homo sapiens, UniProt P37231); assay: PPARγ receptor binding assay ([3H]rosiglitazone); settings: Table 3; [3H]rosiglitazone 10 nM, human recombinant
T2 construct: host or cells: E. coli
T2 sequence (P37231 1-505): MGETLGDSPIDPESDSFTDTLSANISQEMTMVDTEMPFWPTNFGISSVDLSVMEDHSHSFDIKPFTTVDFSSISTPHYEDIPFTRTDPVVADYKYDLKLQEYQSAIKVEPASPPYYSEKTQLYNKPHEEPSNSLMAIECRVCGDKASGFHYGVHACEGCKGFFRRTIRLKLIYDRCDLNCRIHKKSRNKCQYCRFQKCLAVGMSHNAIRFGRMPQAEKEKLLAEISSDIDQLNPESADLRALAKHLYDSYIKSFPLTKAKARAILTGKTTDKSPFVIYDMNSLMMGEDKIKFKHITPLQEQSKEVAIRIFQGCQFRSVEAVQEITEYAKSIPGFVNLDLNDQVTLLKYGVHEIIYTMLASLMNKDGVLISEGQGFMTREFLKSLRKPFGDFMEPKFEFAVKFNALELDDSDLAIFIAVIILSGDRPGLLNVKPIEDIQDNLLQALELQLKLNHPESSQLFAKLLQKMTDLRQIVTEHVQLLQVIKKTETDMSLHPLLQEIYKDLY
From the text: Selected GST2 Inhibitors Screened Against PPARγ and KATP Channel Modulator Assays
Selected GST2 inhibitors of General Formula (I) were screened in a PPARγ assay to determine their modulator effects.
as §1, §2

[4] = test system: B6.V Lep^ob mice (ob/ob mice); assay: Pharmacological study: body weight and food intake of treated ob/ob mice; format: in vivo, mouse; settings: male ob/ob mice, 120 mg/kg/day by oral gavage, 12 days of treatment, versus vehicle
Description: FIG. 1 is a body weight curve graph which plots the body weight and food intake of mice over time. Some of the mice are given food only whereas some are given food together with Compound 22 below.
16 Male ob/ob mice were obtained from Charles River in Belgium at an approximate age of 6 weeks and with an approximate mean body weight of 35 g at the beginning of substance administration. Mice were housed 4 per cage at a temperature of 23° C.±1 and a day/night cycle of 14/10 hours (05:00-19:00-05:00), with ad libitum access to standard chow and tap water. Mice were allowed to adapt to these conditions for 8 days prior to the start of treatment. Animals were administered substance by oral gavage in the morning at 07:00, immediately after determining body weight and food consumption. In the evening substance was administered at 19:00. One group of 8 animals were administered vehicle, 0.3% methylcellulose in saline, and the second group of 8 animals were administered Compound 22 (120 mg/kg/day) suspended in the vehicle. Body weight and food consumption were recorded daily during 12 days of treatment and the results are presented in FIG. 1, which is a body weight curve graph. This illustrates a 7% reduced weight gain in Compound 22 administered ob/ob mice, despite unaltered food intake.

[5] = Mouse microsomal metabolism assay; format: in vitro ADME; settings: liver microsomes; mouse hepatic microsomes, 37° C., phosphate buffer pH 7.4, NADPH regenerating system; read-out: Mouse t½
Description: Selected GST2 Inhibitors from Formula I Assessed in Mouse Microsomal Metabolism Assay
Selected GST2 inhibitors of General Formula (I) were screened in a mouse hepatic microsome assay to determine microsomal metabolism.
Test Articles were prepared in 50% acetonitrile.
Mouse hepatic microsomes supplied by BD GenTest Inc or an equivalent reputable supplier.
Test Articles are added to incubation plates containing phosphate buffer pH 7.4 and microsomes at a suitable protein concentration. Incubation plates are placed on a shaking water bath at 37° C. for 5 minutes pre-incubation. An aliquot of the reaction mixture is taken and added to acetonitrile (3:1). This is designated time […]. NADPH regenerating system in phosphate buffer pH 7.4 is added to initiate reactions. Aliquots from the incubation wells are taken at a number of time points and added to acetonitrile. Control incubations contained no microsomes or compounds with known microsomal stabilities. Samples were subject to centrifugation to remove denatured protein and the supernatants were analysed by LCMS.
Half lives were calculated from the log vs time transformed data according to the following equation: […]
Where λ is the slope of the linear regression line under first order (Test Article concentration <Km) conditions.

[6] = Table 1, read-out: GST2 IC50 Range
[7] = Table 3, read-out: GST2 IC50 range
[8] = given beside the compound name in Examples 1 to 167, read-out: Potency Range (GST2 IC50)

T1 sequence (O60760 whole entry): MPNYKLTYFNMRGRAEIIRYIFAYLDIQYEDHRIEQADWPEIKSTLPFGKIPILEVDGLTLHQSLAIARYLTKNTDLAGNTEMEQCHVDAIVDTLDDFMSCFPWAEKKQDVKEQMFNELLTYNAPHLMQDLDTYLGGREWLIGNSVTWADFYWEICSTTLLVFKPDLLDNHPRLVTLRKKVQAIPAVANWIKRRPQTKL
K+ATP channel, sequence (Q09429 whole entry): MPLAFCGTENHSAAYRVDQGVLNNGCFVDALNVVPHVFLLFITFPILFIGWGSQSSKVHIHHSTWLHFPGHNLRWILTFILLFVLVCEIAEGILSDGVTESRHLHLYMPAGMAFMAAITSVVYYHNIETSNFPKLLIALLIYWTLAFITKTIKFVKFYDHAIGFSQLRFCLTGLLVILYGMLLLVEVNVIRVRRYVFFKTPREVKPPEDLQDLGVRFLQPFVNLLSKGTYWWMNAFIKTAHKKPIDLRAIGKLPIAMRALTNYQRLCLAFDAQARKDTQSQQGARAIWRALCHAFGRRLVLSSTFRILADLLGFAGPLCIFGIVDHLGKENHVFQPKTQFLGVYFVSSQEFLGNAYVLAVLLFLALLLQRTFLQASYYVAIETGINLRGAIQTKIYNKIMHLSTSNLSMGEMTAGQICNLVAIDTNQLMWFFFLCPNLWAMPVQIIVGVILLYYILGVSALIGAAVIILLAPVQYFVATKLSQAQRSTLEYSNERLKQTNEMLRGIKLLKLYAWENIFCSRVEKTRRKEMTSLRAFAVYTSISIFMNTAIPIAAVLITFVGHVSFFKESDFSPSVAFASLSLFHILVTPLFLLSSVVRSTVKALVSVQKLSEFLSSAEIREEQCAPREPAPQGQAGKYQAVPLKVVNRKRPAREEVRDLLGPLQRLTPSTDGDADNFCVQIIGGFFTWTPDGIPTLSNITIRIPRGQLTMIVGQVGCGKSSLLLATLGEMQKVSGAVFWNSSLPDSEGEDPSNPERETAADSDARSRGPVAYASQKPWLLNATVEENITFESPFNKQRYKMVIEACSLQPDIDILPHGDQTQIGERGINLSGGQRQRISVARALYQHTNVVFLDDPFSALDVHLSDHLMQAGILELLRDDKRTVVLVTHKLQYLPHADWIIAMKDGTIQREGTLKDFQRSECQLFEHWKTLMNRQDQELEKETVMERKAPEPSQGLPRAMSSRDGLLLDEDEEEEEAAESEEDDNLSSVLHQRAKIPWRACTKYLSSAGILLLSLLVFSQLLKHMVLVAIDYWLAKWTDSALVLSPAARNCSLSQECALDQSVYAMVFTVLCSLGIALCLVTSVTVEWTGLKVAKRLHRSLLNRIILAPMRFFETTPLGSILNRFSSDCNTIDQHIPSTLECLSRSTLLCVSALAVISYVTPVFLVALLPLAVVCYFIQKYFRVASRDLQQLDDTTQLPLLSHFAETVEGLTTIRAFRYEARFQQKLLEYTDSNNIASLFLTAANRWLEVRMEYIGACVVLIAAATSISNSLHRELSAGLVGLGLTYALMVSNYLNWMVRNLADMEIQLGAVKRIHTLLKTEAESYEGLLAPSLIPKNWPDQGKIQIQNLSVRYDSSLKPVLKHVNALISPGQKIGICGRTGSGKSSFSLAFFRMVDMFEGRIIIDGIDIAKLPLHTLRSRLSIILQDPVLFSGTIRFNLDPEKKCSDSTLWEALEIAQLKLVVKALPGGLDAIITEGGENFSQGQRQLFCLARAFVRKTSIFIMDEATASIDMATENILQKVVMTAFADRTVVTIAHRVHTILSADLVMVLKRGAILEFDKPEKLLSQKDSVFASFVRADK
K+ATP channel, sequence (P70673 whole entry partner): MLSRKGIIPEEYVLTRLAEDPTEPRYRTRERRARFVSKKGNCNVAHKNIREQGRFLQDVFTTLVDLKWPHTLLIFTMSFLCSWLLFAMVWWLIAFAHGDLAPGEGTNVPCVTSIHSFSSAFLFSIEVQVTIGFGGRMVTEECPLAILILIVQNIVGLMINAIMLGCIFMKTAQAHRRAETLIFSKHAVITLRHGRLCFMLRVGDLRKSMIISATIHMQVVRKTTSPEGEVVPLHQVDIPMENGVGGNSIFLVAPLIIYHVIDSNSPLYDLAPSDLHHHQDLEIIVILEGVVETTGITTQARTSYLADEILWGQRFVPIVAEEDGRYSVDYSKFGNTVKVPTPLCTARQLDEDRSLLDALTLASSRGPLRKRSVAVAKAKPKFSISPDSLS

## O=C(Nc1ccc(N2CCN(C(=O)OC3CCOC3)CC2)c(F)c1)N1CCN(C(=O)c2cccc(F)c2)CC1 (racemic) [Compound 59, 4-(2-Fluoro-4-{[4-(3-fluoro-benzoyl)-piperazine-1-carbonyl]-amino}-phenyl)-piperazine-1-carboxylic acid tetrahydro-furan-3-yl ester]
[1]; [6]
  IC50: 11 to 100 nM
[1]; [7]
  IC50: 11 to 100 nM
[1]; [8]
  IC50: 11 to 100 nM
[2]
  inhibition at 10 µM: 15%
  K+ATP Channel (% Inhibition of Control Specific Binding): 12%
[3]
  PPARγ (% Inhibition of Control Specific Binding): 15%

## O=C(Nc1ccc(C(F)(F)F)cc1)N1CCN(C(=O)c2cccc(F)n2)CC1 [Compound 22, 4-(6-Fluoro-pyridine-2-carbonyl)-piperazine-1-carboxylic acid (4-trifluoromethyl-phenyl)-amide]
[1]; [6]
  IC50: 101 to 1000 nM
[1]; [7]
  IC50: 101 to 1000 nM
[1]; [8]
  IC50: 101 to 1000 nM
[2]
  inhibition at 10 µM: 1%
  K+ATP Channel (% Inhibition of Control Specific Binding): 14%
[3]
  PPARγ (% Inhibition of Control Specific Binding): 1%
[4]
  reduced weight gain: 7%
[5]
  half-life: > 1 h

## Cc1nc(-c2cccc(NC(=O)N3CCN(C(=O)c4cccc(F)c4)CC3)c2)no1 [Compound 30, 4-(3-Fluoro-benzoyl)-piperazine-1-carboxylic acid [3-(5-methyl-[1,2,4]oxadiazol-3-yl)-phenyl]-amide]
[1]; [6]
  IC50: 11 to 100 nM
[1]; [7]
  IC50: 11 to 100 nM
[1]; [8]
  IC50: 11 to 100 nM
[2]
  inhibition at 10 µM: 16%
  K+ATP Channel (% Inhibition of Control Specific Binding): 13%
[3]
  PPARγ (% Inhibition of Control Specific Binding): 16%

## O=C(Nc1nc(-c2ccccc2)cs1)N1CCN(C(=O)c2cccc(F)c2)CC1 [Compound 69, 4-(3-Fluoro-benzoyl)-piperazine-1-carboxylic acid (4-phenyl-thiazol-2-yl)-amide]
[1]; [6]
  IC50: 11 to 100 nM
[1]; [7]
  IC50: 11 to 100 nM
[1]; [8]
  IC50: 11 to 100 nM
[2]
  inhibition at 10 µM: -22%
  K+ATP Channel (% Inhibition of Control Specific Binding): −13%
[3]
  PPARγ (% Inhibition of Control Specific Binding): −22%

## Cn1cnnc1-c1cccc(NC(=O)N2CCN(C(=O)c3cccc(F)c3)CC2)c1 [Compound 76, 4-(3-Fluoro-benzoyl)-piperazine-1-carboxylic acid [3-(4-methyl-4H-[1,2,4]triazol-3-yl)-phenyl]-amide]
[1]; [6]
  IC50: 11 to 100 nM
[1]; [7]
  IC50: 11 to 100 nM
[1]; [8]
  IC50: 101 to 1000 nM
[2]
  inhibition at 10 µM: 20%
  K+ATP Channel (% Inhibition of Control Specific Binding): −2%
[3]
  PPARγ (% Inhibition of Control Specific Binding): 20%

## O=C(c1ccccc1)N1CCN(C(=S)Nc2cc(Cl)cc(Cl)c2)CC1 [Compound X, 4-Benzoyl-piperazine-1-carbothioic acid (3,5-dichloro-phenyl)-amide, reference compound]
[1]; [6]
  IC50: 101 to 1000 nM
[2]
  inhibition at 10 µM: -10%

## O=C(c1ccccc1)N1CCN(C(=S)Nc2cc(C(F)(F)F)ccc2Cl)CC1 [Compound XI, 4-Benzoyl-piperazine-1-carbothioic acid (2-chloro-5-trifluoromethyl-phenyl)-amide, reference compound]
[1]; [6]
  IC50: 11 to 100 nM
[2]
  inhibition at 10 µM: -12%

## O=C(c1ccccc1)N1CCN(C(=S)Nc2ccc(C(F)(F)F)cc2)CC1 [Compound XII, 4-Benzoyl-piperazine-1-carbothioic acid (4-trifluoromethyl-phenyl)-amide, reference compound]
[1]; [6]
  IC50: 11 to 100 nM
[2]
  inhibition at 10 µM: -14%
